Assay [1] deals with multiple human cell lines. The arrangement: method as in PMID 36142383, PMID 37173934, PMID 36296713. The note with it: average over all cell lines; cited from earlier work.
For the next assay, the system named is BE2-C neuroblastoma. The arrangement: method as in PMID 36142383, PMID 37173934, PMID 36296713. The note with it: cited from earlier work.
Another assay relates to MCF-7 breast. Further details: method as in PMID 36142383, PMID 37173934, PMID 36296713. The note with it: cited from earlier work.
Another assay has as its system HT29 colon. The arrangement: method as in PMID 36142383, PMID 37173934, PMID 36296713. Conditions: cited from earlier work.
The subject of another assay is SJ-G2 glioblastoma. Further details: method as in PMID 36142383, PMID 37173934, PMID 36296713. The note with it: cited from earlier work.
Another assay concerns A2780 ovarian. The arrangement: method as in PMID 36142383, PMID 37173934, PMID 36296713. The note with it: cited from earlier work.
The test system of assay [2] is cisplatin-resistant ADDP ovarian variant. The arrangement: method as in PMID 36142383, PMID 37173934, PMID 36296713. The note with it: cited from earlier work.
The next assay relates to U87 glioblastoma. The arrangement: method as in PMID 36142383, PMID 37173934, PMID 36296713. The note with it: cited from earlier work.
The test system of a further assay is H460 lung. Further details: method as in PMID 36142383, PMID 37173934, PMID 36296713. Conditions: cited from earlier work.
The subject of the next assay is Du145 prostate. The arrangement: method as in PMID 36142383, PMID 37173934, PMID 36296713. The note with it: cited from earlier work.
For another assay, the system named is MIA pancreas. The arrangement: method as in PMID 36142383, PMID 37173934, PMID 36296713. The note with it: cited from earlier work.
The test system of a further assay is A431 skin. Further details: method as in PMID 36142383, PMID 37173934, PMID 36296713. The note with it: cited from earlier work.
The subject of assay [3] is HT29 colon cells. Further details: method as in PMID 36142383, PMID 37173934, PMID 36296713. The note with it: cited from earlier work.
The subject of assay [4] is histone deacetylase (HDAC). The assay can be described thus: Fluorometric HDAC activity assay on extracts of treated HT29 cells. The assay is classed as cell-based, human. The note with it: HT29 colon cells treated 72 h at GI50 concentration, lower RFU = decline in HDAC activity, HT29 extract control 5154 ± 40. Here is the method: All values are expressed as RFU.
To study the HDAC activity in HT29 treated cells, a Fluorometric HDAC Activity Assay Kit ab156064 (Abcam, Cambridge, MA, USA) was used and all sample preparations were made based on the manufacturer’s protocol. A total of 10^6 cells/mL of HT29 cells were seeded in DMEM with serum deprivation for 18 h to synchronise the cells. […] Cells were then washed with cold PBS and resuspended in lysis buffer (10 mM Tris HCl (pH 7.5), 10 mM NaCl, 15 mM MgCl2, 250 mM sucrose, 0.5% NP-40 and 0.1 mM EGTA) and lysed on ice for 20 min. Cells were centrifuged through 4 mL of sucrose cushion (30% sucrose, 10mM Tris HCl (pH 7.5), 10 mM NaCl and 3mM MgCl2) at 1300× g for 10 min at 4 °C. Supernatant was discarded and the pellet was washed and resuspended in extraction buffer (50 mM HEPES-KOH (pH 7.5), 420 mM NaCl, 0.5 mM EDTA 2Na, 0.1 mM EGTA and 10% glycerol) and then sonicated for 30 s. Nuclei were lysed for 30 min on ice and centrifuged at 20,000× g for 30 min. The supernatant was collected, and the samples were prepared for the fluorometric assay according to the manufacturer’s protocol (Histone Deacetylase (HDAC) Activity Assay Fluorometric Kit ab156064, Abcam). The changes in the relative fluorescence intensity (expressed as RFU) were recorded each minute over 60 min using the Glo-Max®-Multimode microplate reader (Promega Corporation, Alexandra, VIC, Australia) at an excitation/emission of 355/460 nm.

The subject of assay [5] is non-tumour-derived MCF10A breast line. The arrangement: method as in PMID 36142383, PMID 37173934, PMID 36296713. The note with it: cited from earlier work.
The test system of assay [6] is HT29 colon cells. In words: TMRE mitochondrial membrane potential (MtMP) assay. The note with it: GI50 drug concentration (FCCP 20 μM). Format: cell-based, human. Here is the method: This was achieved by determining if the overproduction of ROS induced by these complexes impacts mitochondrial activity by altering MtMP. Briefly, there is evidence showing a strong correlation between increased levels of ROS and mitochondrial impairment. […] The MtMP changes recorded are measured as RFU. […] To investigate the MtMP changes in HT29 treated cells, a TMRE-MtMP Assay Kit (Abcam, Cambridge, MA, USA) was used, as previously described. In 96-well plates, 25,000 cells/mL of HT29 colon cells in DMEM were seeded. Cells were treated with a GI50 drug concentration for each complex. At 24, 48 or 72 h, cells were washed with PBS and stained with tetramethylrhodamine, ethyl ester (TMRE) (1 μM) and incubated for 30 min. TMRE was then removed, and cells were then re-washed with PBS (0.2% BSA), after which phenol red free media was added. The plates were directly scanned to measure fluorescence (expressed as RFU), using the Glo-Max®-Multimode microplate reader (Promega Corporation, Alexandra, VIC, Australia) at an excitation/emission of 549/575 nm. For the positive control, 20 μM carbonyl cyanide 4-(trifluoromethoxy) phenylhydrazone (FCCP)) was added to the cells and incubated for 10 min. The cells were washed with PBS (0.2% BSA) and stained with TMRE (1 μM) for 30 min; this was removed, and phenol red free media was added, and the final solution was scanned as mentioned above.

In assay [7] the test system is HT29 colon cells. In words: DCFDA cellular ROS production assay. Format: cell-based, human. Conditions: GI50 drug concentration (TBHP 20 μM). Here is the method:
All values are expressed as relative fluorescence units (RFU).
To evaluate the presence of ROS in treated cells, a DCFDA/H2DCFDA-cellular ROS Assay Kit (Abcam, Cambridge, MA, USA) was used, as previously described. A total of 25,000 cells/mL of HT29 cells in DMEM were seeded in 96-well plates. Cells were washed with 1X kit buffer, and then stained with 25 μM 2′,7′-dichlorofluorescein diacetate (DCFH-DA) and incubated for 45 min. DCFH-DA was then removed, and cells were then re-washed with 1X kit buffer, after which phenol red free media was added. Cells were then treated with a GI50 drug concentration for each complex. The plates were directly scanned to measure fluorescence (relative fluorescence units (RFU)) at the time points indicated the Glo-Max®-Multimode microplate reader (Promega Corporation, Alexandra, VIC, Australia) at an excitation/emission of 485/535 nm, which is directly correlated to the DCFH-DA that is deacetylated by cellular esterases and then oxidised by ROS to the fluorescent compound DCF. To generate the positive control (20 μM tert-butyl hydroperoxide (TBHP)), cells were washed with 1X kit buffer, and stained with DCFDA (25 μM) for 45 min; this was removed and TBHP was added in phenol red free media, and the resulting solution was scanned as described above.

Here are results for seven compounds from publication PMC10888562 (International Journal of Molecular Sciences, 2024).

“And” between values parts separate entries of the source, which are not always exact repeats. Equal entries are not always repeated. Where two headings read alike, the source gives them in different places.

`O=C1[O][Pt]2([NH][C@@H]3CCCC[C@H]3[NH]2)[O]C1=O` (relative stereo) [Oxaliplatin, trans-L(1R,2R-diaminocyclohexane) oxalatoplatinum(II)]: the concentration for 50% growth inhibition (GI50) is 1460 ± 320 nM in assay [1]; 900 ± 200 nM with BE2-C neuroblastoma; 500 ± 100 nM with MCF-7 breast; 900 ± 200 nM in the assay on HT29 colon; 3000 ± 1200 nM with SJ-G2 glioblastoma; 160 ± 100 nM in the assay with A2780 ovarian. Moreover, the 50% growth inhibitory concentration (GI50) in [2] is 800 ± 100 nM; in the assay on U87 glioblastoma, 1800 ± 200 nM; in the assay on H460 lung it was 1600 ± 100 nM; in the assay with Du145 prostate, 2900 ± 400 nM; with MIA pancreas, 900 ± 200 nM; in the assay on A431 skin, 4100 ± 500 nM.
Turning to `Cc1cc2cccnc2c2ncccc12.N[C@H]1CCCC[C@@H]1N.[OH][Pt+2][OH]` [5MESS(IV)(OH)2], the “ROS Production” value in the assay with HT29 colon cells [3] (24 h) is 234 ± 1 RFU; with HT29 colon cells [3] (48 h), 323 ± 9 RFU; with HT29 colon cells [3] (72 h) it was 335 ± 2 RFU. In addition, the concentration for 50% growth inhibition (GI50) in [1] was 443 ± 81 nM; in the assay on BE2-C neuroblastoma it was 1400 ± 300 nM; in the assay on MCF-7 breast, 1200 ± 390 nM; in assay [5], 130 ± 19 nM; with HT29 colon, 60 ± 6 nM; in the assay on SJ-G2 glioblastoma it was 640 ± 70 nM. In addition, the GI50 with A2780 ovarian was 240 ± 9 nM; in assay [2], 130 ± 22 nM; with U87 glioblastoma, 900 ± 58 nM; in the assay with H460 lung, 60 ± 5 nM; in the assay on Du145 prostate, 41 ± 5 nM; with MIA pancreas it was 160 ± 29 nM. For the same compound, the concentration for 50% growth inhibition (GI50) in the assay with A431 skin is 360 ± 58 nM. In addition, the “HDAC Inhibition at 72 h” value in assay [4] was found to be 3119 ± 9 RFU. The “MtMP Changes” value is 311 ± 3 RFU in the assay with HT29 colon cells [6] (24 h, control 542 ± 4); 291 ± 9 RFU in the assay on HT29 colon cells [6] (48 h, control 507 ± 11); 228 ± 7 RFU in the assay on HT29 colon cells [6] (72 h, control 449 ± 10).
Turning to `Cc1cc2cccnc2c2ncccc12.N[C@H]1CCCC[C@@H]1N.[Pt+2]` [5MESS, [Pt^II(5-Mephen)(SS-DACH)]^2+], the figures for the “ROS Production” value in the assay on HT29 colon cells [3] (24 h), with HT29 colon cells [3] (48 h) and in the assay on HT29 colon cells [3] (72 h) were 204 ± 4 RFU, 205 ± 3 RFU and 188 ± 3 RFU, respectively. Besides, the GI50 was 117 ± 12 nM in [1]; 270 ± 38 nM in the assay on BE2-C neuroblastoma; 200 ± 12 nM in the assay on MCF-7 breast; 30 ± 2 nM in assay [5]; 33 ± 4 nM in the assay with HT29 colon; 220 ± 10 nM with SJ-G2 glioblastoma. Besides, the 50% growth inhibitory concentration (GI50) in the assay with A2780 ovarian is 61 ± 10 nM; in assay [2], 34 ± 2 nM; with U87 glioblastoma, 320 ± 26 nM; with H460 lung, 41 ± 5 nM; in the assay with Du145 prostate it was 22 ± 3 nM; with MIA pancreas, 48 ± 2 nM. Besides, the GI50 in the assay with A431 skin is 120 ± 25 nM. In addition, the “HDAC Inhibition at 72 h” value in assay [4] was 2124 RFU and 2124 ± 21 RFU. Further, the “MtMP Changes” value in the assay with HT29 colon cells [6] (24 h, control 542 ± 4) came to 283 ± 4 RFU; in the assay on HT29 colon cells [6] (48 h, control 507 ± 11) it was 261 ± 9 RFU; in the assay on HT29 colon cells [6] (72 h, control 449 ± 10), 189 ± 11 RFU.
With `N.N.O=C([O-])C1(C(=O)[O-])CCC1.[Pt+2]` [Carboplatin, cis-diammine(1,1-cyclobutanecarboxylato)platinum(II)], the GI50 in assay [1] is 32200 nM; in the assay with BE2-C neuroblastoma, 19000 nM; in the assay on MCF-7 breast, > 50000 nM; in [5], > 50000 nM; in the assay on HT29 colon it was > 50000 nM; with SJ-G2 glioblastoma, 5700 ± 200 nM. The GI50 in the assay on A2780 ovarian is 9200 ± 2900 nM; in [2], > 50000 nM; in the assay on U87 glioblastoma, > 50000 nM; in the assay on H460 lung it was 14000 nM; in the assay with Du145 prostate, 15000 nM; in the assay on MIA pancreas, > 50000 nM. Further, the GI50 in the assay on A431 skin is 24000 nM.
On to `N#CC(C#N)=NNc1ccc(OC(F)(F)F)cc1` [FCCP, carbonyl cyanide 4-(trifluoromethoxy) phenylhydrazone], for which the “MtMP Changes” value is 234 ± 3 RFU in the assay on HT29 colon cells [6] (24 h, control 542 ± 4); 151 ± 7 RFU in the assay on HT29 colon cells [6] (48 h, control 507 ± 11); 84 ± 5 RFU with HT29 colon cells [6] (72 h, control 449 ± 10).
Take `CC(C)(C)OO` [TBHP, tert-butyl hydroperoxide]: the “ROS Production” value was determined as 614 ± 21 RFU in the assay on HT29 colon cells [7] (24 h, control 60 ± 3); 477 ± 23 RFU with HT29 colon cells [7] (48 h, control 63 ± 4); 311 ± 18 RFU in the assay with HT29 colon cells [7] (72 h, control 85 ± 6).
For `CC(/C=C/C(=O)NO)=C\[C@@H](C)C(=O)c1ccc(N(C)C)cc1` [Trichostatin A (TSA), Trichostatin A], the results for the “HDAC Inhibition at 72 h” value in assay [4] and in assay [4] (listed as TSA) were 749 ± 8 RFU and 749 RFU, respectively.

The term GI50 denotes the concentration at which growth is held to half of that of the control.
